Literature values as cited in patent EP1337618B1, “CLEANING TABLETS” (UNILEVER N.V., priority 2000, dated 2002).
Where two headings read alike, the source gives them in different places.

[1] = at 20°C, other common materials

| Structure (SMILES) | Water Solubility [1] | solubility in water (at 20°C) | Water Solubility (deionised water at 20°C, highly water-soluble materials) |
| --- | --- | --- | --- |
| O=BO[O-].[Na+] [Sodium perborate anhydrous] | 3.7 g/100g | – | – |
| O=P(O)(O)OP(=O)(O)OP(=O)(O)O [Sodium tripolyphosphate anhydrous] | 15 g/100g | – | – |
| NC(N)=O [Urea] | – | exceeding 100 gms per 100ml water | >100 g/100g |
